Measurements from patent publication US4937235A, “3- or 4-substituted oxotremorine derivatives” (American Cyanamid Company, priority 1989, dated 1990).
Where a name gives a salt, the structure may show the parent alone.

Columns and labels:
[1] = molecular target: muscarinic cholinergic receptor; assay: [3H] Quinuclidinyl Benzilate (3H-QNB) Binding Assay; design: species or system rat; conditions: pH 7.4
[2] = molecular target: muscarinic cholinergic receptor; assay: [3H]-Cis-methyldioxolane (3H-CD) Binding Assay (High Affinity); conditions: rat cerebral cortex, 1.0 nM 3H-CD, 25° C., 120 minutes, pH 7.4
[3] = rat cerebral cortex, 0.25 nM 3H-QNB, 25° C., 120 minutes

Structure (SMILES)	IC50 [1] [µM]	IC50 [2] [nM]	IC50 [1, 3] [µM]
CN(C)CC#CCN1C[C@@H](O)CC1=O	1510	10100	
O=C1CCCN1CC#CCN1CCC(O)C1 (racemic) [(Racemic)-1-[4-(3-Hydroxy-1-pyrrolidinyl)-2-butynyl]-2-pyrrolidinone]	395	425	
COC1CCN(CC#CCN2CCCC2=O)C1 (racemic) [(Racemic)-1-[4-(3-Methoxy-1-pyrrolidinyl)-2-butytnyl]-2-pyrrolidinone, (Racemic)-1-[4-(3-Methoxy-1-pyrrolidinyl)-2-butynyl]-2-pyrrolidinone]	110	1750	
CC(=O)OC1CCN(CC#CCN2CCCC2=O)C1 (racemic) [(Racemic)-1-[4-[3-(Acetyloxy)-1-pyrrolidinyl]-2-butynyl]-2-pyrrolidinone]	313	1330	
CC(=O)OC1CCN(CC#CCN(C)C(C)=O)C1 (racemic) [(Racemic)-N-[4-(3-(Acetyloxy)-1-pyrrolidinyl]-2-butynyl]-N-methyl acetamide, (Racemic)-N-[4-[3-(Acetyloxy)-1-pyrrolidinyl]-2-butynyl]-N-methyl acetamide]	1930	5460	
CC(=O)N(C)CC#CCN1CCC(O)C1 (racemic) [(Racemic)-N-[4-(3-Hydroxy-1-pyrrolidinyl)-2-butynyl]-N-methyl acetamide]	1190	2010	
COC1CCN(CC#CCN(C)C(C)=O)C1 (racemic) [(Racemic)-N-[4-(3-Methoxy-1-pyrrolidinyl)-2-butynyl]-N-methyl acetamide]	377	1370	
O=C1CCCN1CC#CCN1CCCCC1 [1-[4-(1-Piperidinyl)-2-butynyl]-2-pyrrolidinone, reference compound]	2	77	
CN(C)CC#CCN1CCCC1=O [1-[4-(Dimethylamino)-2-butynyl]-2-pyrrolidinone, reference compound]	163	44	
O=C1C(S)CCN1CC#CCN1CCCCC1 (stereo not drawn) [3-Mercapto-1-[4-(1-piperidinyl)-2-butynyl]-2-pyrrolidinone]	11	587	
CN(C)CC#CCN1CC[C@@H](OC(=O)c2ccc([N+](=O)[O-])cc2)C1=O [(R)-1-[4-(Dimethylamino)-2-butynyl]-3-[(4-nitrobenzoyl)oxy]-2-pyrrolidinone]		5010	113
CN(C)CC#CCN1CC[C@@H](O)C1=O [(R)-1-[4-(Dimethylamino)-2-butynyl]-3-hydroxy-2-pyrrolidinone]	1470	578	
CN(C)CC#CCN1CC[C@@H](S)C1=O [(R)-1-[4-(Dimethylamino)-2-butynyl]-3-mercapto-2-pyrrolidinone, monohydrochloride]	31	76	
CN(C)CC#CCN1C[C@H](O)CC1=O [(R)-1-[4-(Dimethylamino)-2-butynyl]-4-hydroxy-2-pyrrolidinone]	2350	578	
CC(=O)O[C@@H]1CCN(CC#CCN2CCCCC2)C1=O [(R)-3-(Acetyloxy)-1-[4-(1-piperidinyl)-2-butynyl]-2-pyrrolidinone]	419	4470	
CC(=O)O[C@@H]1CCN(CC#CCN2CCCC2)C1=O [(R)-3-(Acetyloxy)-1-[4-(1-pyrrolidinyl)-2-butynyl]-2-pyrrolidinone]	231	547	
O=C1[C@H](O)CCN1CC#CCN1CCCCC1 [(R)-3-Hydroxy-1-[4-(1-piperidinyl)-2-butynyl]-2-pyrrolidinone]	84	3460	

Structure (SMILES)	IC50 [1] [µM]	IC50 [2] [nM]	IC50 [1, 3] [µM]
O=C1[C@H](O)CCN1CC#CCN1CCCC1 [(R)-3-Hydroxy-1-[4-(1-pyrrolidinyl)-2-butynyl]-2-pyrrolidinone]	47	134	
O=C1[C@H](S)CCN1CC#CCN1CCCC1 [(R)-3-Mercapto-1-[4-(1-pyrrolidinyl)-2-butynyl]-2-pyrrolidinone]	1	7	
CO[C@@H]1CCN(CC#CCN2CCCCC2)C1=O [(R)-3-Methoxy-1-[4-(1-piperidinyl)-2-butynyl]-2-pyrrolidinone]	459	28100	
CO[C@@H]1CCN(CC#CCN2CCCC2)C1=O [(R)-3-Methoxy-1-[4-(1-pyrrolidinyl)-2-butynyl]-2-pyrrolidinone]	283	1970	
O=C(O[C@@H]1CCN(CC#CCN2CCCCC2)C1=O)c1ccc([N+](=O)[O-])cc1 [(R)-3-[(4-Nitrobenzoyl)oxy]-1-[4-(1-piperidinyl)-2-butynyl]-2-pyrrolidinone]		937	43
O=C(O[C@@H]1CCN(CC#CCN2CCCC2)C1=O)c1ccc([N+](=O)[O-])cc1 [(R)-3-[(4-Nitrobenzoyl)oxy]-1-[4-(1-pyrrolidinyl)-2-butynyl]-2-pyrrolidinone]		4290	59
CC(=O)O[C@@H]1CC(=O)N(CC#CCN2CCCCC2)C1 [(R)-4-(Acetyloxy)-1-[4-(1-piperidinyl)-2-butynyl]-2-pyrrolidinone]	181	8080	
CC(=O)O[C@@H]1CC(=O)N(CC#CCN2CCCC2)C1 [(R)-4-(Acetyloxy)-1-[4-(1-pyrrolidinyl)-2-butynyl]-2-pyrrolidinone]	46	914	
CC(=O)O[C@@H]1CC(=O)N(CC#CCN(C)C)C1 [(R)-4-(Acetyloxy)-1-[4-(dimethylamino)-2-butynyl]-2-pyrrolidinone]	1780	11500	
O=C1C[C@@H](O)CN1CC#CCN1CCCCC1 [(R)-4-Hydroxy-1-[4-(1-piperidinyl)-2-butynyl]-2-pyrrolidinone]	166	3790	
O=C1C[C@@H](O)CN1CC#CCN1CCCC1 [(R)-4-Hydroxy-1-[4-(1-pyrrolidinyl)-2-butynyl]-2-pyrrolidinone]	52	53	
CC(=O)S[C@@H]1CCN(CC#CCN(C)C)C1=O [(R)-S-[1-[4-(Dimethylamino)-2-butynyl]-2-oxo-3-pyrrolidinyl]ethanethioic acid ester]	20	62	
CC(=O)S[C@@H]1CCN(CC#CCN2CCCCC2)C1=O [(R)-S-[2-Oxo-1-(4-piperidinyl-2-butynyl)-3-pyrrolidinyl]etha] [(R)-S-[2-Oxo-1-(4-piperidinyl-2-butynyl)-3-pyrrolidinyl]ethanethioic acid ester]	91		
CC(=O)S[C@@H]1CCN(CC#CCN2CCCCC2)C1=O [(R)-S-[2-Oxo-1-(4-piperidinyl-2-butynyl)-3-pyrrolidinyl]ethanethioic acid ester]		946	
CC(=O)S[C@@H]1CCN(CC#CCN2CCCCC2)C1=O [(R)-S-[2-Oxo-1-[4-(1-piperidinyl)-2-butynyl]-3-pyrrolidinyl]] [(R)-S-[2-Oxo-1-[4-(1-piperidinyl)-2-butynyl]-3-pyrrolidinyl]ethanethioic acid ester]	4.3	30	
CN(C)CC#CCN1CC[C@H](O[Si](C)(C)C(C)(C)C)C1=O [(S)-1-[4-(Dimethylamino)-2-butynyl]-3-[[(1,1-dimethylethyl)dimethylsilyl]oxy]-2-pyrrolidinone]	200	19500	
CC(=O)O[C@H]1CCN(CC#CCN2CCCC2=O)C1 [(S)-1-[4-[3-(Acetyloxy)-1-pyrrolidinyl]-2-butynyl]-2-pyrrolidinone]	2320	2020	
